Results as given in the supplement of paper PMC8253809.

What was measured:
DIPGX29 [1] = H3.3 K27M diffuse intrinsic pontine glioma line; test: EC50 (inflection of fitted growth-inhibition curve) (log10 M)
Procedure, shortened: (§1)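 Patient-derived pHGG/DIPG cell lines and astrocyte controls were plated in 384-well plates coated with 1% Geltrex and dosed by pin tool with a 10-point threefold dilution series (mean top concentration 35 μM), in triplicate. Cells were exposed for 7 days (3 days for iAstro) at 37 °C and 5% CO2. CellTiter-Glo luminescence was log2-transformed, normalised per plate to % activity between negative (solvent) and positive control wells, and pooled. EC50 and maximal response (yFin) were taken from whichever three- or four-parameter log-logistic fit had the lowest AICc.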

DIPGX37 [2] = H3.3 K27M diffuse intrinsic pontine glioma line; test: as above
Procedure, shortened: as §1

DIPGX29 [3] = test: maximal growth inhibition (yFin) relative to DMSO / staurosporine; higher = more efficacious
Procedure, shortened: as §1

DIPGX37 [4] = test: as above
Procedure, shortened: as §1

DIPGX29 [5] = test: area under dose-response curve of % growth inhibition (log2 RLU vs DMSO / staurosporine), 1e-11 to 1e-4 M (% x log10 M); higher = more growth inhibition
Procedure, shortened: (§2)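 Patient-derived pHGG/DIPG cell lines and astrocyte controls were grown on 1% Geltrex-coated 384-well plates and exposed to a 10-point threefold dilution series (mean top concentration 35 μM), in triplicate. Exposure was 7 days (iAstro 3 days) at 37 °C, 5% CO2. CellTiter-Glo luminescence was log2-transformed and normalised per plate to % activity between solvent and positive controls. Area under the curve was taken by trapezoid rule from the fitted log-logistic curve, or from a smoothing spline when the sigmoid fit failed.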

DIPGX37 [6] = test: as above
Procedure, shortened: as §2

HGGX39 [7] = paediatric high-grade glioma line; test: as above
Procedure, shortened: as §2

HGGX6 [8] = H3.3 G34R paediatric high-grade glioma line; test: as above
Procedure, shortened: as §2

HGGX39 [9] = test: EC50 (inflection of fitted growth-inhibition curve) (log10 M)
Procedure, shortened: as §1

HGGX6 [10] = test: as above
Procedure, shortened: as §1

HGGX39 [11] = test: maximal growth inhibition (yFin) relative to DMSO / staurosporine; higher = more efficacious
Procedure, shortened: as §1

HGGX6 [12] = test: as above
Procedure, shortened: as §1

Structure (SMILES)	EC50 (log10 M) (DIPGX29 [1])	EC50 (log10 M) (DIPGX37 [2])	maximal growth inhibition (DIPGX29 [3]) [%]	maximal growth inhibition (DIPGX37 [4]) [%]	area under dose-response curve (DIPGX29 [5])	area under dose-response curve (DIPGX37 [6])	area under dose-response curve (HGGX39 [7])	area under dose-response curve (HGGX6 [8])	EC50 (log10 M) (HGGX39 [9])	EC50 (log10 M) (HGGX6 [10])	maximal growth inhibition (HGGX39 [11]) [%]	maximal growth inhibition (HGGX6 [12]) [%]
Cc1nn(C)c(COc2ccc(N3CCN(S(=O)(=O)N(C)C)CC3)cc2)c1-c1cccc2c(CCCOc3cccc4ccccc34)c(C(=O)O)n(CCN3CCOCC3)c12	-4.9	-4.73	92.1	110	81.7	79.7	0	4.05	–	–	–	–
Nc1nccc2c1ncn2[C@@H]1C=C(CO)[C@@H](O)[C@H]1O [3-DEAZANEPLANOCIN]	-7.53	–	21.5	–	76	16.8	33.5	36.5	–	–	–	–
CC(C)(C)C(=O)OCOP(=O)(COCCn1cnc2c(N)ncnc21)OCOC(=O)C(C)(C)C [ADEFOVIR DIPIVOXIL]	–	-5.54	–	34.3	25.6	53.7	36.5	22.2	-5.71	-5.06	21.4	20.9
CCCSc1ccc2[nH]c(NC(=O)OC)nc2c1 [ALBENDAZOLE]	–	-6.1	–	28.7	33.5	60.2	66	28.7	-6.13	-5.18	32	23
C[C@H]1[C@H](OC(=O)CCC(=O)O)O[C@@H]2O[C@@]3(C)CC[C@H]4[C@H](C)CC[C@@H]1[C@@]24OO3 [ARTESUNATE]	–	–	–	–	8.84	9.88	29	23.5	-4.94	-5.03	32.5	22.2
CC(C)c1c(C(=O)Nc2ccccc2)c(-c2ccccc2)c(-c2ccc(F)cc2)n1CC[C@@H](O)C[C@@H](O)CC(=O)O [ATORVASTATIN]	–	-6.26	–	22	48	66.2	108	55.5	-5.24	-4.88	84.1	55.1
CNC(=O)c1ccccc1Sc1ccc2c(/C=C/c3ccccn3)n[nH]c2c1 [AXITINIB]	-6.07	–	21.1	–	45.4	55.3	46.3	67.6	-5.96	-6.35	23.3	28.6
c1ccc(-c2ccc(C(c3ccccc3)n3ccnc3)cc2)cc1 (stereo unspecified) [BIFONAZOLE]	–	-4.75	–	42.4	17.3	31.9	30.5	16.4	–	-4.81	–	20.1
COc1cc2nccc(Oc3ccc(NC(=O)C4(C(=O)Nc5ccc(F)cc5)CC4)cc3)c2cc1OC [CABOZANTINIB]	–	–	–	–	10.6	12.8	37.5	33	-4.62	-4.79	60.2	27.1
Nc1nc(Cl)nc2c1ncn2[C@@H]1O[C@H](CO)[C@@H](O)[C@@H]1F [CLOFARABINE]	–	-5.4	–	28.4	52.4	47	44.4	40.9	–	-5.65	–	22.7
Clc1ccccc1C(c1ccccc1)(c1ccccc1)n1ccnc1 [CLOTRIMAZOLE]	-4.92	–	29.5	–	27.2	13.3	27.8	31.5	-5.21	-5.22	23	26.3
Cc1nc2c([nH]1)-c1ccccc1N(C(=O)c1ccc(NC(=O)c3ccccc3-c3ccccc3)cc1)CC2 [CONIVAPTAN]	-4.73	-4.59	26.5	36	29.9	35.9	60.9	6.44	-4.73	–	83.9	–
O=c1[nH]c(=O)n([C@H]2C[C@H](O)[C@@H](CO)O2)cc1F [FLOXURIDINE]	-5.39	–	30	–	46.2	18.8	26.8	23.5	–	–	–	–
CC(C)n1c(/C=C/C(O)CC(O)CC(=O)O)c(-c2ccc(F)cc2)c2ccccc21 (stereo unspecified) [FLUVASTATIN]	–	–	–	–	25.5	1.43	51.2	54	-6.08	-5.92	23.9	26.8
Nc1ccn([C@@H]2O[C@H](CO)[C@@H](O)C2(F)F)c(=O)n1 [GEMCITABINE]	-8.08	–	20.3	–	81.9	83.9	68.9	54.2	–	–	–	–
CCNc1nc(Nc2cc(F)c(C(=O)N3CCOCC3)cc2OC)ncc1C(F)(F)F [GNE-7915]	-4.82	–	28.7	–	23.5	15.9	29.7	21.1	-4.79	–	38.7	–
Cc1cc(C)c(S(=O)(=O)N(Cc2ccc(-c3cccc(S(C)(=O)=O)c3)cc2)Cc2ccc(C(F)(F)F)o2)c(C)c1 [GSK-2033]	-5.05	–	87.3	–	89	22.5	0	30.1	–	–	–	–
COc1cc2c(cc1-c1c(C)noc1C)ncc1[nH]c(=O)n([C@H](C)c3ccccn3)c12 [I-BET151]	-5.05	-5.65	21.8	25.8	31.6	43.5	47.5	37.1	-5.03	–	45	–
CC(=O)N1c2ccc(-c3ccc(C(=O)O)cc3)cc2[C@H](Nc2ccc(Cl)cc2)C[C@@H]1C [I-BET726]	-5.48	-6.37	30	37.1	43	79.4	55.9	44.5	-5.73	–	37.7	–

Structure (SMILES)	EC50 (log10 M) (DIPGX29 [1])	EC50 (log10 M) (DIPGX37 [2])	maximal growth inhibition (DIPGX29 [3]) [%]	maximal growth inhibition (DIPGX37 [4]) [%]	area under dose-response curve (DIPGX29 [5])	area under dose-response curve (DIPGX37 [6])	area under dose-response curve (HGGX39 [7])	area under dose-response curve (HGGX6 [8])	EC50 (log10 M) (HGGX39 [9])	EC50 (log10 M) (HGGX6 [10])	maximal growth inhibition (HGGX39 [11]) [%]	maximal growth inhibition (HGGX6 [12]) [%]
CC[C@H](C)C(=O)O[C@H]1C[C@@H](C)C=C2C=C[C@H](C)[C@H](CC[C@@H]3C[C@@H](O)CC(=O)O3)[C@H]21 [LOVASTATIN]	–	-5.76	–	23.7	29.8	36.7	94.8	29.1	-5.37	-5.49	68	21.5
S=c1[nH]cnc2nc[nH]c12 [MERCAPTOPURINE]	-6.35	–	20.5	–	44.1	38	28	25.5	–	-5.3	–	21.1
CN(C)CCCNC(=O)c1ccc(-c2cc(O)c3ncccc3c2)cc1 [ML324]	-4.82	–	43.7	–	35.8	4.39	14.9	29.4	–	-4.67	–	44.1
CCC(CC)(NC(=O)C(C)C)C(=O)N[C@@H](CCCN=C(N)N)C(=O)NC1(C(=O)NC(c2ccc(F)cc2)c2ccc(F)cc2)CCCC1 [MM-102]	-5.17	–	33.9	–	39.7	6.41	12.2	65.5	–	-5.03	–	63.5
CCCCOc1cc(C(=O)OCCN(CC)CC)ccc1N [OXYBUPROCAINE]	–	–	–	–	11.5	16.5	65.7	29.7	-4.97	-5.11	67.2	26.6
C#CCC(Cc1cnc2nc(N)nc(N)c2n1)c1ccc(C(=O)N[C@@H](CCC(=O)O)C(=O)O)cc1 (stereo partly specified) [PRALATREXATE]	–	–	–	–	66.7	73	116	83.2	-8.55	-7.84	25.5	22.1
CCCCOc1ccc(OCCCN2CCOCC2)cc1 [PRAMOXINE]	–	-4.83	–	55.5	17.3	46.2	70.5	23.2	-4.82	-4.97	77	23.9
CC(C)c1nc(N(C)S(C)(=O)=O)nc(-c2ccc(F)cc2)c1/C=C/[C@@H](O)C[C@@H](O)CC(=O)O [ROSUVASTATIN]	–	-5.85	–	22.7	25.2	37.5	83.4	30.4	-5.45	-5.54	61.4	21.2
N#CC[C@H](C1CCCC1)n1cc(-c2ncnc3[nH]ccc23)cn1 [RUXOLITINIB]	–	–	–	–	24.4	44.2	44.9	28.9	-5.58	-5.22	27.7	21.7
O=C(/C=C\n1cnc(-c2cc(C(F)(F)F)cc(C(F)(F)F)c2)n1)NNc1cnccn1 [SELINEXOR]	–	–	–	–	144	169	195	205	-6.06	-5.23	96.2	101
Cn1cnc2c(F)c(Nc3ccc(Br)cc3Cl)c(C(=O)NOCCO)cc21 [SELUMETINIB]	-4.87	-4.93	34.5	83.2	52.5	96	14.2	26.8	–	–	–	–
CCC(C)(C)C(=O)O[C@H]1C[C@@H](C)C=C2C=C[C@H](C)[C@H](CC[C@@H]3C[C@@H](O)CC(=O)O3)[C@H]21 [SIMVASTATIN]	–	–	–	–	29.8	39.1	63.6	24.4	-4.94	-5.07	53.9	22.6
Nc1ncnc2c1ncn2[C@@H]1O[C@H](C[C@@H](N)CC[C@H](N)C(=O)O)[C@@H](O)[C@H]1O [SINEFUNGIN]	-5.35	–	21.5	–	29	0	0	4.01	–	–	–	–
CCc1c2c(nc3ccc(O)cc13)-c1cc3c(c(=O)n1C2)COC(=O)[C@]3(O)CC [SN-38]	–	-6.02	–	49	68.7	125	167	65.4	-6.74	-6.77	46.5	23.2
Nc1nc2[nH]cnc2c(=S)[nH]1 [THIOGUANINE]	-5.83	-5.44	35.6	60.4	59.5	89.3	33.7	21.6	-5.68	–	22.1	–
O=C(NCC1(c2nc(-c3ccccc3)cs2)CCOCC1)c1cccc(-c2noc(C(F)(F)F)n2)c1 [TMP269]	–	-4.89	–	44.2	28	53.7	22.7	27.4	-4.9	-4.93	25.1	21
CCC(COC(=O)c1cc(OC)c(OC)c(OC)c1)(c1ccccc1)N(C)C (stereo unspecified) [TRIMEBUTINE]	–	-5.38	–	25.6	28.3	35.6	60.1	19.8	-5.08	-4.87	55.5	22.6
C=C[C@]1(C)C[C@@H](OC(=O)CSC(C)(C)CNC(=O)[C@H](N)C(C)C)[C@]2(C)[C@H](C)CC[C@]3(CCC(=O)[C@H]32)[C@@H](C)[C@@H]1O [VALNEMULIN]	-4.85	-4.79	55.5	30.2	59.9	24	42.1	12	-5.56	–	30.5	–
CC[C@]1(O)C[C@@H]2CN(CCc3c([nH]c4ccccc34)[C@@](C(=O)OC)(c3cc4c(cc3OC)N(C)[C@H]3[C@@](O)(C(=O)OC)[C@H](OC(C)=O)[C@]5(CC)C=CCN6CC[C@]43[C@@H]65)C2)C1 [VINBLASTINE]	-5.63	–	50.4	–	88.8	58.2	53.5	58.8	–	-5.46	–	23.5
